The nature of series [1]: Stability in mouse plasma assessed as parent compound remaining after 24 hrs. It counts as ADME, cell-free. Conditions: read-out: Stability.
A short description of series [2]: Stability in human plasma assessed as parent compound remaining after 24 hrs. It counts as ADME, cell-free. Conditions: read-out: Stability.

Molecules are shown by their SMILES.

`CC(=O)N[C@@H](Cc1ccccc1)C(=O)N[C@@H](CCC(N)=O)C(=O)N[C@@H](CO)C(=O)N[C@@H](CCCCN)C(=O)N1CCC[C@@H]1C(=O)N[C@@H](CC(N)=O)C(=O)N[C@H](C(=O)N[C@@H](Cc1cnc[nH]1)C(=O)N[C@H](C(=O)N1CCC[C@H]1C(=O)N[C@H](CS)C(=O)N[C@@H](Cc1ccc(O)cc1)C(=O)N[C@@H](Cc1csc2ccccc12)C(=O)N[C@@H](CCS)C(=O)N[C@@H](CCCNC(=N)N)C(=O)N[C@@H](CC(C)C)C(=O)NC(C)(C)C(=O)N[C@H](C)C(=O)N[C@@H](CCCCN)C(=O)N[C@@H](CC(C)C)C(N)=O)C(C)C)C(C)C`: the remaining at 24 h in series [1] was 28.3%; in series [2], 77.7%.

With `CC(=O)N[C@@H](Cc1ccccc1)C(=O)N[C@@H](CCC(N)=O)C(=O)N[C@@H](CO)C(=O)N[C@@H](CCCCN)C(=O)N1CCC[C@@H]1C(=O)N[C@@H](CC(N)=O)C(=O)N[C@H](C(=O)N[C@@H](Cc1c[nH]cn1)C(=O)N[C@H](C(=O)N[C@@H](CC(=O)O)C(=O)NCC(=O)N[C@@H](Cc1ccc(O)cc1)C(=O)N[C@@H](Cc1ccccc1)C(=O)N[C@@H](CCC(=O)O)C(=O)N[C@@H](CCCNC(=N)N)C(=O)N[C@@H](CC(C)C)C(=O)NC(C)(C)C(=O)N[C@@H](C)C(=O)N[C@@H](CCCCN)C(=O)N[C@@H](CC(C)C)C(N)=O)C1CCCCC1)C(C)C`, the remaining at 24 h in series [1] was 5.4%; in series [2], 27.6%.

Take `CC(=O)N[C@@H](Cc1ccccc1)C(=O)N[C@@H](CCC(N)=O)C(=O)N[C@@H](CO)C(=O)N[C@@H](CCCCN)C(=O)N1CCC[C@@H]1C(=O)N[C@@H](CC(N)=O)C(=O)N[C@H](C(=O)N[C@@H](Cc1cnc[nH]1)C(=O)N[C@H](C(=O)N[C@@H](CC(=O)O)C(=O)N[C@H](C)C(=O)N[C@@H](Cc1ccc(O)cc1)C(=O)N[C@@H](Cc1ccccc1)C(=O)N[C@@H](CCC(=O)O)C(=O)N[C@@H](CCCNC(=N)N)C(=O)N[C@@H](CC(C)C)C(=O)NC(C)(C)C(=O)NC(C)(C)C(=O)N[C@@H](CCCCN)C(=O)N[C@@H](CC(C)C)C(N)=O)C(C)(C)C)C(C)C`: the remaining at 24 h in series [1] stood at 85.9%; in series [2], 99.2%.

Regarding `CC(=O)N[C@@H](Cc1ccccc1)C(=O)N[C@@H](CCC(N)=O)C(=O)N[C@@H](CO)C(=O)N[C@@H](CCCCN)C(=O)N1CCC[C@@H]1C(=O)N[C@@H](CC(N)=O)C(=O)N[C@H](C(=O)N[C@@H](Cc1cnc[nH]1)C(=O)N[C@H](C(=O)N[C@@H](CC(=O)O)C(=O)NCC(=O)N[C@@H](Cc1ccc(O)cc1)C(=O)N[C@@H](Cc1ccccc1)C(=O)N[C@@H](CCC(=O)O)C(=O)N[C@@H](CCCNC(=N)N)C(=O)N[C@@H](CC(C)C)C(=O)NC(C)(C)C(=O)N[C@@H](C)C(=O)N[C@@H](CCCCN)C(=O)N[C@@H](CC(C)C)C(N)=O)C(C)C)C(C)C`, the remaining at 24 h in series [1] lay in the range of 5 to 10%; in series [2], 10 to 27%.

For the compound `CCCC[C@H](NC(=O)C(C)(C)NC(=O)[C@H](CC(C)C)NC(=O)[C@H](CCCNC(=N)N)NC(=O)[C@H](CCC(=O)O)NC(=O)[C@H](Cc1ccccc1)NC(=O)[C@H](Cc1ccc(O)cc1)NC(=O)CNC(=O)[C@H](CC(=O)O)NC(=O)[C@@H](NC(=O)[C@H](Cc1cnc[nH]1)NC(=O)[C@@H](NC(=O)[C@H](CC(N)=O)NC(=O)[C@H]1CCCN1C(=O)[C@H](CCCCN)NC(=O)[C@H](CO)NC(=O)[C@H](CCC(N)=O)NC(=O)[C@H](Cc1ccccc1)NC(C)=O)C(C)C)C(C)(C)C)C(=O)N[C@@H](CCCCN)C(=O)N[C@@H](CC(C)C)C(N)=O`, the figures for the remaining at 24 h in series [1] and in series [2] were 17% and 90.1%, respectively.

Turning to `CC(=O)N[C@@H](Cc1ccccc1)C(=O)N[C@@H](CCC(N)=O)C(=O)N[C@@H](CO)C(=O)N[C@@H](CCCCN)C(=O)N1CCC[C@@H]1C(=O)N[C@@H](CC(N)=O)C(=O)N[C@H](C(=O)N[C@@H](Cc1cnc[nH]1)C(=O)N[C@H](C(=O)N[C@@H](CC(=O)O)C(=O)N[C@H](C)C(=O)N[C@@H](Cc1ccc(O)cc1)C(=O)N[C@@H](Cc1ccccc1)C(=O)N[C@@H](CCC(=O)O)C(=O)N[C@@H](CCCNC(=N)N)C(=O)N[C@@H](CC(C)C)C(=O)NC(C)(C)C(=O)N[C@@H](C)C(=O)N[C@@H](CCCCN)C(=O)N[C@@H](CC(C)C)C(N)=O)C(C)(C)C)C(C)C`, the remaining at 24 h in series [1] is 47.2%; in series [2] it was 100%.

`CC(=O)N[C@@H](Cc1ccccc1)C(=O)N[C@@H](CCC(N)=O)C(=O)N[C@@H](CO)C(=O)N[C@@H](CCCCN)C(=O)N1CCC[C@@H]1C(=O)N[C@@H](CC(N)=O)C(=O)N[C@H](C(=O)N[C@@H](Cc1cnc[nH]1)C(=O)N[C@H](C(=O)N[C@@H](CC(=O)O)C(=O)NCC(=O)N[C@@H](Cc1ccc(O)cc1)C(=O)N[C@@H](Cc1ccccc1)C(=O)N[C@@H](CCC(=O)O)C(=O)N[C@@H](CCCNC(=N)N)C(=O)N[C@@H](CC(C)C)C(=O)NC(C)(C)C(=O)N[C@@H](CC(C)C)C(=O)N[C@@H](CCCCN)C(=O)N[C@@H](CC(C)C)C(N)=O)C(C)(C)C)C(C)C`: the remaining at 24 h in series [1] is 13.7%; in series [2], 78.7%.

Consider `CCC(CC)(NC(=O)[C@H](CC(C)C)NC(=O)[C@H](CCCNC(=N)N)NC(=O)[C@H](CCC(=O)O)NC(=O)[C@H](Cc1ccccc1)NC(=O)[C@H](Cc1ccc(O)cc1)NC(=O)[C@@H](C)NC(=O)[C@H](CC(=O)O)NC(=O)[C@@H](NC(=O)[C@H](Cc1cnc[nH]1)NC(=O)[C@@H](NC(=O)[C@H](CC(N)=O)NC(=O)[C@H]1CCCN1C(=O)[C@H](CCCCN)NC(=O)[C@H](CO)NC(=O)[C@H](CCC(N)=O)NC(=O)[C@H](Cc1ccccc1)NC(C)=O)C(C)C)C(C)(C)C)C(=O)N[C@@H](C)C(=O)N[C@@H](CCCCN)C(=O)N[C@@H](CC(C)C)C(N)=O`, for which the remaining at 24 h in series [1] is 62.9%.

Turning to `CC(=O)N[C@@H](Cc1ccccc1)C(=O)N[C@@H](CCC(N)=O)C(=O)N[C@@H](CO)C(=O)N[C@@H](CCCCN)C(=O)N1CCC[C@@H]1C(=O)N[C@@H](CC(N)=O)C(=O)N[C@H](C(=O)N[C@@H](Cc1ccc2ccccc2c1)C(=O)N[C@H](C(=O)N[C@@H](CC(=O)O)C(=O)N[C@H](C)C(=O)N[C@@H](Cc1ccc(O)cc1)C(=O)N[C@@H](Cc1ccccc1)C(=O)N[C@@H](CCC(=O)O)C(=O)N[C@@H](CCCNC(=N)N)C(=O)N[C@@H](CC(C)C)C(=O)NC(C)(C)C(=O)N[C@@H](C)C(=O)N[C@@H](CCCCN)C(=O)N[C@@H](CC(C)C)C(N)=O)C(C)(C)C)C(C)C`, the figures for the remaining at 24 h in series [1] and in series [2] were 51.1% and 88.8%, respectively.

As to `CC(C)C[C@@H]1NC(=O)[C@H](CCCCN)NC(=O)[C@H](C)NC(=O)C(C)(C)NC(=O)[C@H](CC(C)C)NC(=O)[C@H](CCCNC(=N)N)NC(=O)[C@H](CCC(=O)O)NC(=O)[C@H](Cc2ccccc2)NC(=O)[C@H](Cc2ccc(O)cc2)NC(=O)CNC(=O)[C@H](CC(=O)O)NC(=O)[C@H](C(C)C)NC(=O)[C@H](Cc2cnc[nH]2)NC(=O)[C@H](C(C)C)NC(=O)[C@H](CC(N)=O)NC(=O)[C@H]2CCCN2C(=O)[C@H](CCCCN)NC(=O)[C@H](CO)NC(=O)[C@H](CCC(N)=O)NC(=O)[C@H](Cc2ccccc2)NC(=O)CCOCCOCCOCCNC1=O`, the remaining at 24 h in series [1] worked out at 38.1%; in series [2], 62.8%.

Turning to `CC(=O)N[C@@H](Cc1ccccc1)C(=O)N[C@@H](CCC(N)=O)C(=O)N[C@@H](CO)C(=O)N[C@@H](CCCCN)C(=O)N1CCC[C@@H]1C(=O)N[C@@H](CC(N)=O)C(=O)N[C@H](C(=O)N[C@@H](Cc1cnc[nH]1)C(=O)N[C@H](C(=O)N[C@@H](CC(=O)O)C(=O)NCC(=O)N[C@@H](Cc1ccc(O)cc1)C(=O)N[C@@H](Cc1csc2ccccc12)C(=O)N[C@@H](CCC(=O)O)C(=O)N[C@@H](CCCNC(=N)N)C(=O)N[C@@H](CC(C)C)C(=O)NC(C)(C)C(=O)N[C@@H](C)C(=O)N[C@@H](CCCCN)C(=O)N[C@@H](CC(C)C)C(N)=O)C(C)C)C(C)C`, the figures for the remaining at 24 h in series [1] and in series [2] were 6.1% and 46.6%, respectively.

Take `CC(=O)N[C@@H](Cc1ccccc1)C(=O)N[C@@H](CCC(N)=O)C(=O)N[C@@H](CO)C(=O)N[C@@H](CCCCN)C(=O)N1CCC[C@@H]1C(=O)N[C@@H](CC(N)=O)C(=O)N[C@H](C(=O)N[C@@H](Cc1cnc[nH]1)C(=O)N[C@H](C(=O)N1CCC[C@H]1C(=O)N[C@H](C)C(=O)N[C@@H](Cc1ccc(O)cc1)C(=O)N[C@@H](Cc1ccccc1)C(=O)N[C@@H](CCC(=O)O)C(=O)N[C@@H](CCCNC(=N)N)C(=O)N[C@@H](CC(C)C)C(=O)NC(C)(C)C(=O)N[C@@H](C)C(=O)N[C@@H](CCCCN)C(=O)N[C@@H](CC(C)C)C(N)=O)C(C)C)C(C)C`: the remaining at 24 h is 27.3% in series [1] and 99.3% in series [2].

Turning to `CCCCCCCCCCCCCC(=O)NCCCOCCOCCOCCCNC(=O)CCNCCCC[C@H](NC(=O)[C@H](CC(C)C)NC(=O)[C@H](CCCCN)NC(=O)[C@H](C)NC(=O)C(C)(C)NC(=O)[C@H](CC(C)C)NC(=O)[C@H](CCCNC(=N)N)NC(=O)[C@H](CCC(=O)O)NC(=O)[C@H](Cc1ccccc1)NC(=O)[C@H](Cc1ccc(O)cc1)NC(=O)[C@@H](C)NC(=O)[C@H](CC(=O)O)NC(=O)[C@@H](NC(=O)[C@H](Cc1cnc[nH]1)NC(=O)[C@@H](NC(=O)[C@H](CSCNC(C)=O)NC(=O)[C@H]1CCCN1C(=O)[C@H](CCCCN)NC(=O)[C@H](CO)NC(=O)[C@H](CCC(N)=O)NC(=O)[C@H](Cc1ccccc1)NC(=O)CCCCC)C(C)C)C(C)(C)C)C(N)=O`, the remaining at 24 h in series [1] stood at 67.5%; in series [2], 96.5%.

Consider `CC(=O)N[C@@H](Cc1ccccc1)C(=O)N[C@@H](CCC(N)=O)C(=O)N[C@@H](CO)C(=O)N[C@@H](CCCCN)C(=O)N1CCC[C@@H]1C(=O)N[C@@H](CC(N)=O)C(=O)N[C@H](C(=O)N[C@@H](Cc1cnc[nH]1)C(=O)N[C@H](C(=O)N[C@@H](CC(=O)O)C(=O)NCC(=O)N[C@@H](Cc1ccc(O)cc1)C(=O)N[C@@H](Cc1ccccc1)C(=O)N[C@@H](CCC(=O)O)C(=O)N[C@@H](CCCNC(=N)N)C(=O)N[C@@H](CC(C)C)C(=O)NC(C)(C)C(=O)N[C@@H](C)C(=O)N[C@@H](CCCCN)C(=O)N[C@@H](CC(C)C)C(N)=O)C(C)C)C1CCCCC1`, for which, in series [1], the remaining at 24 h is 4.1%.

Regarding `CC(=O)N[C@@H](Cc1ccccc1)C(=O)N[C@@H](CCC(N)=O)C(=O)N[C@@H](CO)C(=O)N[C@@H](CCCCN)C(=O)N1CCC[C@@H]1C(=O)N[C@@H](CC(N)=O)C(=O)N[C@H](C(=O)N[C@@H](Cc1cnc[nH]1)C(=O)N[C@H](C(=O)N[C@@H](CC(=O)O)C(=O)NCC(=O)N[C@@H](Cc1ccc(O)cc1)C(=O)N[C@@H](Cc1cccc2ccccc12)C(=O)N[C@@H](CCC(=O)O)C(=O)N[C@@H](CCCNC(=N)N)C(=O)N[C@@H](CC(C)C)C(=O)NC(C)(C)C(=O)N[C@@H](C)C(=O)N[C@@H](CCCCN)C(=O)N[C@@H](CC(C)C)C(N)=O)C(C)C)C(C)C`, the remaining at 24 h in series [1] is 6.3%.

Source of the values: ChEMBL document CHEMBL4420062, “Tfpi inhibitors and methods of use” (2013).
